Where “and” joins values, the source holds several entries; their conditions need not be identical. Equal values may be shown once.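 Method: 48-hour compound exposure of cells in 96-well plates, five concentrations, linear interpolation of endpoints. The concentration for 50% growth inhibition is given as GI50. TGI marks complete inhibition of growth.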
How the values were obtained:
Experiment in all cases: DTP human tumour cell line panel, 48 h
[1] = test system: RPMI-8226 leukemia
[2] = test system: HT29 colon
[3] = test system: NCI-H226 lung
[4] = test system: SK-MEL-28 melanoma
[5] = test system: OVCAR-8 ovarian
[6] = test system: HCT-116 colon
[7] = test system: SK-MEL-2 melanoma
[8] = test system: A549 NSCLC
[9] = test system: LOX IMVI melanoma
[10] = test system: NCI-H522 lung

SMILES | TGI [1] [µM] | TGI [2] | TGI [3] | TGI [4] [µM] | TGI [5] [µM] | TGI [6] [µM] | TGI [7] | TGI [8] [µM] | TGI [9] [µM] | TGI [10] | GI50 [10] [µM] | GI50 [5] [µM] | GI50 [6] [µM] | GI50 [8] [µM] | GI50 [9] [µM] | GI50 [1] [µM] | GI50 [2] [µM] | GI50 [3] [µM] | GI50 [7] [µM]
Nc1ccccc1S(=O)(=O)c1ccccc1 | > 100 | > 100 µM | > 100 µM | > 100 | > 100 | > 100 | > 100 µM | > 100 | > 100 | – | – | – | – | – | – | – | – | – | –
COc1cc2c(ccc3c4cc(OC)c(OC)cc4c[n+](C)c23)cc1O | > 75 | > 75 µM | 9.14 µM | > 75 | 62 | > 60.3 | > 71.5 µM | > 75 | > 75 | 1.86 µM | – | – | – | – | – | – | – | – | –
COc1ccc(C(=O)c2sc(Nc3ccc(Cl)cc3)nc2N)cc1 | > 43.5 | > 64.9 µM | > 100 µM | > 100 | > 100 | > 34.4 | > 49.1 µM | > 59.6 | > 100 | 33.9 µM | – | – | – | – | – | – | – | – | –
CN(C)CC(CC1=C(CC(CN(C)C)N(C)C)CCC1)N(C)C (stereo not drawn) | > 100 | > 100 µM | > 100 µM | > 100 | > 100 | > 100 | > 100 µM | > 100 | > 100 | > 100 µM | – | – | – | – | – | – | – | – | –
Nc1nc(SCCc2ccccc2)nc2nc3c(c(-c4ccccc4)c12)CCCC3 | > 100 | > 100 µM | – | > 100 | > 100 | – | – | > 100 | > 100 | – | – | – | – | – | – | – | – | – | –
NC(=O)c1c(NC(=O)c2ccccn2)sc2c1CCC(=O)C2 | – | – | – | – | > 100 | > 100 | – | > 100 | > 100 | 8.65 µM | 0.821 | 3.45 | 3.5 | > 100 | 3.72 | – | – | – | –
O=C(O)C1C2CCC(O2)C1C(=O)Nc1cccc2cccnc12 (stereo not drawn) | > 100 | > 100 µM | – | > 100 | – | > 100 | > 100 µM | > 100 | > 100 | > 100 µM | – | – | – | – | – | – | – | – | –
CCN(CC(=O)O)C(=O)c1cccnc1 | – | > 100 µM | – | > 100 | > 100 | > 100 | > 100 µM | > 100 | > 100 | > 100 µM | – | – | – | – | – | – | – | – | –
CCOC(=O)C1=NN(c2ccc(C)cc2)C2=CC(C)=NN(C)C(=S)N21 | > 100 | > 100 µM | – | > 100 | > 100 | > 100 | > 100 µM | > 100 | > 100 | 36.5 µM | – | – | – | – | – | – | – | – | –
CCOC(=O)C(NC(=O)c1ccco1)(Nc1nc2ccc(OCC)cc2s1)C(F)(F)F (stereo not drawn) | – | > 100 µM | > 100 µM | > 100 | > 100 | 91.2 | > 100 µM | > 100 | – | > 100 µM | – | – | – | – | – | – | – | – | –
Nc1cccc(/C=C/C(=O)N2CCN(CCOC(c3ccccc3)c3ccccc3)CC2)c1 | 26.7 | 21.6 µM | 39.8 µM | 28.9 | 35.6 | 28.9 | 29.7 µM | 34.3 | 32.2 | 28.7 µM | – | – | – | – | – | – | – | – | –
COc1cccc([C@H]2C/C(=N\NC(=O)C(=O)N[C@@H](C)c3ccccc3)c3ccccc3N2)c1 | 0.0503 | – | 3.03 µM | > 100 | 1.05 | 12 | > 100 µM | > 100 | > 100 | – | – | 0.0285 | – | 0.0366 | – | – | – | – | –
COc1cc2c(cc1O)CC[C@@H]1[C@@H]2CC[C@]2(C)[C@@H](OCCN(C)C)CC[C@@H]12 | 0.312 | 0.568 µM | 6.04 µM | – | 5.88 | – | 1.04 µM | 1.19 | 0.192 | 1.3 µM | 0.341 | 0.488 | – | 0.247 | 0.0949 | 0.116 | 0.158 | 1.17 | 0.23
COc1cccc2c1Cc1cc(-c3ccccc3)[n+](C)n1-2 | > 100 | 32 µM | 47.7 µM | > 100 | > 100 | 15.8 | 50 µM | > 100 | 29.3 | > 100 µM | – | – | – | – | – | – | – | – | –
O=c1cccccc1[O-].O=c1cccccc1[O-].[O]=[U+2]=[O] | – | > 100 µM | – | 61 | 99.6 | 98.4 | – | > 100 | 95 | – | – | – | – | – | – | – | – | – | –
O=C(OCN1C(=O)C2C3C=CC(C2C1=O)C1C2C(=O)N(COC(=O)C4CCCN4)C(=O)C2C31)C1CCCN1 (stereo not drawn) | 54.1 | > 100 µM | > 100 µM | > 100 | 67.5 | > 53.7 | > 31.6 µM | > 100 | > 64.5 | > 100 µM | – | – | – | – | – | – | – | – | –
CCCCCCCCC/C=C/C=C/C(=O)NCC(=O)NC1C(O)C(O)C(Nc2ncnc3nc[nH]c23)OC1C(O)CO (stereo not drawn) | – | 0.349 µM and 0.117 µM | 0.1 µM and 0.373 µM | 3.25 | 0.077 | > 100 | 0.057 µM and 0.136 µM | – | 0.0396 | 0.0758 µM and 0.277 µM | 0.00453 | 0.00555 | 0.00251 | 0.00608 | 0.00735 | – | 0.000103 | 0.00179 | –
NCCSC(c1ccccc1)c1ccccc1 | 37.4 | 35.5 µM | 65.6 µM | 35.7 | 44 | 30.9 | 32.8 µM | > 100 | 31.2 | 38.4 µM | – | – | – | – | – | – | – | – | –
CCC(C)C1=C(OC(C)=O)[N+]2([O-])Oc3ccc(-c4c(OC(C)=O)c(OC(C)=O)c(-c5ccc(OC(C)=O)cc5)c(OC(C)=O)c4OC(C)=O)cc3OC2(C(C)CC)C(=O)N1OC(C)=O (stereo not drawn) | 22.8 | > 50 µM | > 50 µM | 44.7 | > 50 | 22.8 | 43.2 µM | > 50 | 43.5 | 17.5 µM | – | – | – | – | – | – | – | – | –
O=C(/C=C/c1ccc(O)c(-c2cc(C(=O)/C=C/c3ccc(O)cc3)c(O)cc2O)c1)c1ccc(O)cc1O | > 50 | 22.3 µM | – | 22.1 | 24.7 | 23.7 | > 50 µM | > 50 | 43.1 | > 50 µM | – | – | – | – | – | – | – | – | –
Fc1ccc(C(OCCN2CCC3CCC(C2)N3C/C=C/c2ccco2)c2ccc(F)cc2)cc1 (stereo not drawn) | 17.3 | – | 28.8 µM | 19.5 | 19.6 | 18.5 | 26.2 µM | 29.5 | 24.2 | 20.5 µM | – | – | – | – | – | – | – | – | –

Source: PubChem BioAssay (NCI)
